Patent publication US8598221B2 (priority 2009, dated 2013)

Test system: cramps induced by acetic acid in the mouse
Test: animal or person
Type: in vivo
Protocol: The analgesic effect of a nefopam-celecoxib combination was investigated in the model of abdominal cramps induced in the mouse by intraperitoneal administration of acetic acid. This model of pain induced by a chemical substance corresponds to inflammatory, visceral and acute pain.
Male CD1 mice (bred: C. River) weighing between 25 and 30 grams are used after an acclimatization for at least 7 days in the animal house (temp.=22±2; humidity=50±20%; food SAFE “A04”; nyctohemeral cycle: 12 h/12 h (light: 7 h/19 h−darkness: 19 h/7 h)). • 2. Protocol
On the day of the experiment, the non-fasting mice are weighed, marked and distributed at random in batches of 10. The acetic acid solution (Sigma) is prepared at 0.6%, or 60 mg of acetic acid in 10 ml of 0.9% NaCl.
At t=0, the mouse receives celecoxib by the oral route. At t=30 min, the mouse is administered nefopam or its liquid vehicle by the subcutaneous route. At t=60 min, the acetic acid is injected intraperitoneally (0.1 ml/10 g).
The number of abdominal cramps is counted from 5 to 20 minutes after injection of acetic acid. Frank abdominal cramps characterized by stretching of the hindpaws and/or hollowing of the flanks with twisting are regarded as positive. • 3. Products
Nefopam hydrochloride (Biocodex, batch 38) (called simply nefopam hereunder) is dissolved in distilled water or 0.9% NaCl. Celecoxib (Celebrex® capsules) is suspended in Tween 80 at 1%. • 4. Statistical Analysis
The test used is an analysis of variance for 3 or more groups and a Student t-test for 2 groups. Then the treated group or groups that differ from the control group are determined. […] At least 10 mice are used for each dose, and at least 3 doses are used for determining the dose-response curve. The dose that produces 50% of antinociceptive effect (50% decrease in number of cramps) is calculated by a standard linear regression analysis of the dose-response curve.
The interaction is evaluated by an isobolographic analysis of the co-administration of a combination of doses at fixed ratio according to Tallarida (2000) op. cit., Tallarida et al. (1989) Life Sci. 45:947-961 and Tallarida et al. (1997) Life Sci. 61:PL417-PL425. The isobologram is constructed by joining the ED50 of celecoxib with that of nefopam to obtain the line of additivity. The ED50 of the combination is determined by linear regression analysis of the dose-response curve, and it is compared by a t-test with a theoretical additive ED50 obtained using the PharmToolsPro software.

Cc1ccc(-c2cc(C(F)(F)F)nn2-c2ccc(S(N)(=O)=O)cc2)cc1 [Celecoxib, celecoxib]
ED50 (Mus musculus, read-out: ED50 (dose producing 50% decrease in number of cramps)): 40.2 ± 8.06 mg/kg | % variation of number of cramps (celecoxib 10 mg/kg oral): −9% | Number of cramps (mean ± SEM) (celecoxib 10 mg/kg oral): 28.2 ± 2.9 | % variation of number of cramps (celecoxib 20 mg/kg oral): −42% | Number of cramps (mean ± SEM) (celecoxib 20 mg/kg oral): 18.1 ± 3.2 | % variation of number of cramps (celecoxib 50 mg/kg oral): −39% | Number of cramps (mean ± SEM) (celecoxib 50 mg/kg oral): 18.9 ± 2.2 | % variation of number of cramps (celecoxib 75 mg/kg oral): −72% | Number of cramps (mean ± SEM) (celecoxib 75 mg/kg oral): 8.6 ± 2.1 | % variation of number of cramps (celecoxib 150 mg/kg oral): −90% | Number of cramps (mean ± SEM) (celecoxib 150 mg/kg oral): 3.2 ± 1.0
